# Columns and labels:
# protein sample [1] = assay: Protein quality control screen: melting point temperature vs pH and NaCl concentration; type: physicochemical
# Text: In one embodiment, the present invention contemplates a method comprising a protein quality control screen. Although it is not necessary to understand the mechanism of an invention, it is believed that a quality control screen may be used to analyze: i) comparison of protein state prior to storage and post storage; ii) protein synthesis/purification lot-to-lot comparison; and iii) protein synthesis/purification batch testing. In one embodiment, the protein quality control screen measures protein melting point temperature while varying both pH concentration and ionic strength (e.g., for example, using a sodium chloride dose response curve). See, Table 1.
# In one embodiment, a three dimensional map of the protein melting point temperatures is created by plotting the melting point determinations relative to pH and ionic strength. See. FIG. 15.
# protein sample [2] = assay: Protein stability screen: protein melting point temperature in MES/BTP buffer mixture; type: physicochemical; settings: Hoefmeister Series screen; higher Tm
# Text: In one embodiment, the present invention contemplates a method comprising a physiologic buffer mixture having a temperature-stable pKa to identify test compounds that increase stability of a sample protein by performing a protein melting point temperature screen. […] Although it is not necessary to understand the mechanism of an invention it is believed that a protein stability screen acts to define the bulk properties of a solution system (i.e. impact of pH, ionic strength, buffer etc.) and not just one specific component like most of the other screening conditions. The buffer system also acts as an internal control that simultaneously compares new and old conditions under identical conditions. Although commonly used previously, a urea stability test provides validation and verification of all testing parameters by comparative analysis with historical literature. DMSO screening allows for the nomination of conditions where protein compounds are usually insoluble (e.g., for example, drug binding studies) to identify the proper use of DMSO to solubilize these compounds without effecting the performance of the intended assay.
# See, FIG. 1. […] See, FIG. 3. […] See, FIG. 4. […] See, FIG. 5. […] See, FIG. 6.
# A metal ion screen was performed that compared the relative effects of five (5) different metal chloride ions, each at two different concentrations. See, FIG. 7. […] See, FIG. 8.
# In one embodiment, the kit instructions comprise the following steps: • i) pre-chill the RT-PCR plate at 4° C. for 15-30 minutes prior to the addition of reagents and/or protein sample to each of the wells. • ii) The dye vial and kit plates should be stored at −20° C. and away from light until the time of use. • iii) Add 5 μl of dye to 500 μl of protein sample. The dye to protein ratio can be modified to any particular protein. For example, smaller proteins or proteins with a small hydrophobic core may require an increased dye concentration. • iv) Transfer 5 μl of each solution from the well plate to a corresponding well of the RT-PCR plate. • v) Add 5 μl of the protein/dye mixture to each well of the RT-PCR plate (>0.5 mg/ml). • vi) Mix the solutions by pipetting up and down (˜5 times). • a) gently placing all solutions at the bottom of the avoids subsequent plate centrifugation. • vii) Seal the RT-PCR plate. • viii) Immediately load the TR-PCR plate into the instrument and begin the programmed heating schedule (approximate timeframe=62 minutes), for example: • a) Heat to 20 C • b) Ramp to 90 C in 0.5 C increments. • c) Ramp to 4 C with a two minute schedule. • ix) Upload stored data file to a designated website (e.g., for example, caymanchem.com/deltatm) and follow the instructions.
structure (smiles),measurement,setting,value
[Cl-].[Na+] [sodium chloride],protein melting point temperature,"protein sample [1]; pH 5, NaCl Concentration 0.125",73 °C
same,protein melting point temperature,"protein sample [1]; pH 5, NaCl Concentration 0.25",73.5 °C
same,protein melting point temperature,"protein sample [1]; pH 5, NaCl Concentration 0.5",74.5 °C
same,protein melting point temperature,"protein sample [1]; pH 5, NaCl Concentration 0.75",76 °C
same,protein melting point temperature,"protein sample [1]; pH 5, NaCl Concentration 1",76.5 °C
same,protein melting point temperature,"protein sample [1]; pH 5, NaCl Concentration 1.25",77 °C
same,protein melting point temperature,"protein sample [1]; pH 5, NaCl Concentration 1.5",77 °C
same,protein melting point temperature,"protein sample [1]; pH 5, NaCl Concentration 1.75",76.5 °C
same,protein melting point temperature,"protein sample [1]; pH 5, NaCl Concentration 2",77 °C
same,protein melting point temperature,"protein sample [1]; pH 5.5, NaCl Concentration 0.125",75 °C
same,protein melting point temperature,"protein sample [1]; pH 5.5, NaCl Concentration 0.25",75 °C
same,protein melting point temperature,"protein sample [1]; pH 5.5, NaCl Concentration 0.5",75 °C
same,protein melting point temperature,"protein sample [1]; pH 5.5, NaCl Concentration 0.75",76 °C
same,protein melting point temperature,"protein sample [1]; pH 5.5, NaCl Concentration 1",76.5 °C
same,protein melting point temperature,"protein sample [1]; pH 5.5, NaCl Concentration 1.25",77 °C
same,protein melting point temperature,"protein sample [1]; pH 5.5, NaCl Concentration 1.5",77 °C
same,protein melting point temperature,"protein sample [1]; pH 5.5, NaCl Concentration 1.75",77.5 °C
same,protein melting point temperature,"protein sample [1]; pH 5.5, NaCl Concentration 2",77.5 °C
same,protein melting point temperature,"protein sample [1]; pH 6, NaCl Concentration 0.125",75 °C
same,protein melting point temperature,"protein sample [1]; pH 6, NaCl Concentration 0.25",76 °C
same,protein melting point temperature,"protein sample [1]; pH 6, NaCl Concentration 0.5",76 °C
same,protein melting point temperature,"protein sample [1]; pH 6, NaCl Concentration 0.75",76.5 °C
same,protein melting point temperature,"protein sample [1]; pH 6, NaCl Concentration 1",77 °C
same,protein melting point temperature,"protein sample [1]; pH 6, NaCl Concentration 1.25",77 °C
same,protein melting point temperature,"protein sample [1]; pH 6, NaCl Concentration 1.5",77 °C
same,protein melting point temperature,"protein sample [1]; pH 6, NaCl Concentration 1.75",78 °C
same,protein melting point temperature,"protein sample [1]; pH 6, NaCl Concentration 2",77.5 °C
same,protein melting point temperature,"protein sample [1]; pH 6.5, NaCl Concentration 0.125",76 °C
same,protein melting point temperature,"protein sample [1]; pH 6.5, NaCl Concentration 0.25",76.5 °C
same,protein melting point temperature,"protein sample [1]; pH 6.5, NaCl Concentration 0.5",76.5 °C
same,protein melting point temperature,"protein sample [1]; pH 6.5, NaCl Concentration 0.75",77 °C
same,protein melting point temperature,"protein sample [1]; pH 6.5, NaCl Concentration 1",77.5 °C
same,protein melting point temperature,"protein sample [1]; pH 6.5, NaCl Concentration 1.25",77.5 °C
same,protein melting point temperature,"protein sample [1]; pH 6.5, NaCl Concentration 1.5",77.5 °C
same,protein melting point temperature,"protein sample [1]; pH 6.5, NaCl Concentration 1.75",78 °C
same,protein melting point temperature,"protein sample [1]; pH 6.5, NaCl Concentration 2",78 °C
same,protein melting point temperature,"protein sample [1]; pH 7, NaCl Concentration 0.125",76 °C
same,protein melting point temperature,"protein sample [1]; pH 7, NaCl Concentration 0.25",76.5 °C
same,protein melting point temperature,"protein sample [1]; pH 7, NaCl Concentration 0.5",77 °C
same,protein melting point temperature,"protein sample [1]; pH 7, NaCl Concentration 0.75",77.5 °C
same,protein melting point temperature,"protein sample [1]; pH 7, NaCl Concentration 1",77.5 °C
same,protein melting point temperature,"protein sample [1]; pH 7, NaCl Concentration 1.25",77.5 °C
same,protein melting point temperature,"protein sample [1]; pH 7, NaCl Concentration 1.5",77.5 °C
same,protein melting point temperature,"protein sample [1]; pH 7, NaCl Concentration 1.75",77 °C
same,protein melting point temperature,"protein sample [1]; pH 7, NaCl Concentration 2",77 °C
same,protein melting point temperature,"protein sample [1]; pH 7.5, NaCl Concentration 0.125",76.5 °C
same,protein melting point temperature,"protein sample [1]; pH 7.5, NaCl Concentration 0.25",77.5 °C
same,protein melting point temperature,"protein sample [1]; pH 7.5, NaCl Concentration 0.5",77.5 °C
same,protein melting point temperature,"protein sample [1]; pH 7.5, NaCl Concentration 0.75",78 °C
same,protein melting point temperature,"protein sample [1]; pH 7.5, NaCl Concentration 1",77.5 °C
same,protein melting point temperature,"protein sample [1]; pH 7.5, NaCl Concentration 1.25",76.5 °C
same,protein melting point temperature,"protein sample [1]; pH 7.5, NaCl Concentration 1.5",76 °C
same,protein melting point temperature,"protein sample [1]; pH 7.5, NaCl Concentration 1.75",76 °C
same,protein melting point temperature,"protein sample [1]; pH 7.5, NaCl Concentration 2",75 °C
same,protein melting point temperature,"protein sample [1]; pH 8, NaCl Concentration 0.125",75.5 °C
same,protein melting point temperature,"protein sample [1]; pH 8, NaCl Concentration 0.25",77.5 °C
same,protein melting point temperature,"protein sample [1]; pH 8, NaCl Concentration 0.5",76.5 °C
same,protein melting point temperature,"protein sample [1]; pH 8, NaCl Concentration 0.75",77.5 °C
same,protein melting point temperature,"protein sample [1]; pH 8, NaCl Concentration 1",76.5 °C
same,protein melting point temperature,"protein sample [1]; pH 8, NaCl Concentration 1.25",76.5 °C
same,protein melting point temperature,"protein sample [1]; pH 8, NaCl Concentration 1.5",76 °C
same,protein melting point temperature,"protein sample [1]; pH 8, NaCl Concentration 1.75",75 °C
same,protein melting point temperature,"protein sample [1]; pH 8, NaCl Concentration 2",74.5 °C
same,protein melting point temperature,"protein sample [1]; pH 8.5, NaCl Concentration 0.125",75 °C
same,protein melting point temperature,"protein sample [1]; pH 8.5, NaCl Concentration 0.25",75.5 °C
same,protein melting point temperature,"protein sample [1]; pH 8.5, NaCl Concentration 0.5",76 °C
same,protein melting point temperature,"protein sample [1]; pH 8.5, NaCl Concentration 0.75",77 °C
same,protein melting point temperature,"protein sample [1]; pH 8.5, NaCl Concentration 1",76 °C
same,protein melting point temperature,"protein sample [1]; pH 8.5, NaCl Concentration 1.25",75 °C
same,protein melting point temperature,"protein sample [1]; pH 8.5, NaCl Concentration 1.5",75 °C
same,protein melting point temperature,"protein sample [1]; pH 8.5, NaCl Concentration 1.75",75 °C
same,protein melting point temperature,"protein sample [1]; pH 8.5, NaCl Concentration 2",74.5 °C
same,protein melting point temperature,"protein sample [1]; pH 9, NaCl Concentration 0.125",75 °C
same,protein melting point temperature,"protein sample [1]; pH 9, NaCl Concentration 0.25",75 °C
same,protein melting point temperature,"protein sample [1]; pH 9, NaCl Concentration 0.5",75.5 °C
same,protein melting point temperature,"protein sample [1]; pH 9, NaCl Concentration 0.75",75 °C
same,protein melting point temperature,"protein sample [1]; pH 9, NaCl Concentration 1",75 °C
same,protein melting point temperature,"protein sample [1]; pH 9, NaCl Concentration 1.25",75 °C
same,protein melting point temperature,"protein sample [1]; pH 9, NaCl Concentration 1.5",75 °C
same,protein melting point temperature,"protein sample [1]; pH 9, NaCl Concentration 1.75",74.5 °C
same,protein melting point temperature,"protein sample [1]; pH 9, NaCl Concentration 2",74 °C
same,effect on protein stability (Tm),protein sample [2],improved the stability of the protein
